As a reminder, the IC50 is the concentration at which inhibition is half-maximal.

From ChEMBL document CHEMBL1777709, “Asymmetric synthesis and biological evaluations of (+)- and (-)-6-dimethoxymethyl-1,4-dihydropyridine-3-carboxylic acid derivatives blocking N-type calcium channels” (Bioorg Med Chem Lett, 2011) come the findings set out here.

Assay [1] can be described thus: Inhibition of Voltage-dependent N-type calcium channel- mediated calcium influx in human IMR-32 cells. Type of assay: cell-based.
Assay [2] addresses Voltage-gated L-type calcium channel (Rattus norvegicus, UniProt P22002+Q02485+P27732). As to the kind of experiment: Inhibition of Voltage-dependent L-type calcium channel in rat thoracic aorta ring. Type of assay: tissue-based.
The next assay relates to Rattus norvegicus. As to the kind of experiment: Ratio of inhibition of L-type calcium channel to inhibition of N-type calcium channel in rat hypertension model at 3 ug/ml, iv. Type of assay: functional.

For the molecule `COC(OC)C1=C(C(=O)OC/C=C/c2ccccc2)C(c2cccc(Cl)c2)C(C(=O)O)=C(C)N1` (racemic), the IC50 in assay [1] (Homo sapiens, IMR-32) is 3000 nM.

In the case of `CC1=C(C(=O)O)C(c2cccc([N+](=O)[O-])c2)C(C(=O)OC/C=C/c2ccccc2)=C(C)N1` (racemic), the IC50 in assay [1] (Homo sapiens, IMR-32) turned out to be 3500 nM.

Regarding `COC(OC)C1=C(C(=O)OC/C=C/c2ccccc2)C(c2cccc(Cl)c2)C(C(=O)O)=C(C)N1` (single isomer, unassigned; (+)), the figures for the half-maximal inhibitory concentration (IC50) in assay [1] (imr-32) and in assay [2] were 2600 nM and 13200 nM, respectively.

In the case of `COC(OC)C1=C(C(=O)OC/C=C/c2ccccc2)C(c2cccc(Cl)c2)C(C(=O)O)=C(C)N1` (stereo in doubt; (-)-3), the IC50 in assay [2] was 1800 nM.

`COCCOC(=O)C1=C(C)NC(C)=C(C(=O)OC/C=C/c2ccccc2)C1c1cccc([N+](=O)[O-])c1` (configuration not stated) [CILNIDIPINE]: the IC50 in assay [1] (Homo sapiens, IMR-32) stood at 1600 nM. Moreover, in the assay on Rattus norvegicus, the Ratio is 1.
